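Results reflect a 48-hour exposure of cells in 96-well plates to compound at five concentrations. GI50: concentration for 50% inhibition of growth.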 Calls of active or inactive are those of the source. Cut-off read from the data, not from the text of the source: active = GI50 up to about 1.1 µM and inactive = higher.
Legend:
Assay in all cases: NCI-60 cell line screen, 48 h
ACHN = tested on: ACHN
COLO 205 = tested on: COLO 205
EKVX = tested on: EKVX
HCC 2998 = tested on: HCC 2998
HCT-15 = tested on: HCT-15
HL-60 = tested on: HL-60
HOP-62 = tested on: HOP-62
HOP-92 = tested on: HOP-92
KM12 = tested on: KM12
LOX IMVI = tested on: LOX IMVI
NCI-H23 = tested on: NCI-H23
OVCAR-3 = tested on: OVCAR-3
OVCAR-5 = tested on: OVCAR-5
OVCAR-8 = tested on: OVCAR-8
SF-268 = tested on: SF-268
SF-539 = tested on: SF-539
SK-MEL-2 = tested on: SK-MEL-2
SK-OV-3 = tested on: SK-OV-3
SW-620 = tested on: SW-620
U-251 = tested on: U-251

Row | Compound | GI50 (ACHN) | GI50 (COLO 205) | GI50 (EKVX) | GI50 (HCC 2998) | GI50 (HCT-15) | GI50 (HL-60) | GI50 (HOP-62) | GI50 (HOP-92) | GI50 (KM12) | GI50 (LOX IMVI) | GI50 (NCI-H23) | GI50 (OVCAR-3) | GI50 (OVCAR-5) | GI50 (OVCAR-8) | GI50 (SF-268) | GI50 (SF-539) | GI50 (SK-MEL-2) | GI50 (SK-OV-3) | GI50 (SW-620) | GI50 (U-251)
1 | C=CC(OC(=O)C(C)C)c1ccc(OC(=O)C(C)C)cc1 (stereo not given) | 14.6 µM (inactive) | 8.87 µM (inactive) | 22.4 µM (inactive) | 13.1 µM (inactive) | 5.74 µM | 2.92 µM (inactive) | 9.95 µM (inactive) | 16.7 µM (inactive) | 2.21 µM (inactive) | 4.47 µM (inactive) | 20 µM (inactive) | 16.9 µM (inactive) | 6.5 µM (inactive) | 17.5 µM (inactive) | 26.2 µM (inactive) | 17 µM (inactive) | 11.2 µM (inactive) | 19.8 µM (inactive) | 4.06 µM (inactive) | 4.33 µM (inactive)
2 | BrC(/C=N/Nc1nnc(-c2ccccc2)c(-c2ccccc2)n1)C(Br)c1ccccc1 (stereo not given) | 31 µM (inactive) | 33.2 µM (inactive) | 29.9 µM (inactive) | 30.3 µM (inactive) | 28.7 µM | 22.4 µM (inactive) | 20.6 µM (inactive) | 20.3 µM (inactive) | 32.9 µM (inactive) | 41.5 µM (inactive) | 22.2 µM (inactive) | 35.7 µM (inactive) | 51.5 µM (inactive) | 38.5 µM (inactive) | 29.2 µM (inactive) | 28.4 µM (inactive) | 19.9 µM (inactive) | 82.4 µM (inactive) | 37.8 µM (inactive) | 28.2 µM (inactive)

Reference: ChEMBL document CHEMBL1201862, “PubChem BioAssay data set” (2004)
